In patent US9663495B2 (YUHAN CORPORATION, priority 2013, dated 2017):

Legend:
male C57BL/6 mice = experiment: Oral Glucose Tolerance Test (OGTT); format: in vivo; parameters: concentration or dose not given beside the values; details: fasted male C57BL/6 mice, oral administration 30 minutes before oral glucose; AUCglucose 0-120 minutes versus negative control group
Procedure: The oral glucose tolerance test of the compounds according to the present invention was carried out according to the procedures disclosed in Andrikopoulos S, Blair A R, Deluca N, Fam B C, Proietto J, Am J Physiol Endocrinol Metab. 2008, Vol 295, E1323-1332. Briefly, male C57BL/6 mice at 8 to 9 weeks of age having 20 g to 25 g of body weight (Orient Bio Inc. Korea) were allowed to acclimatize to the surroundings (temperature: 20±2° C., humidity: 40-60%, light/dark cycle: 12 hours) for 1 week. During the acclimatization, the mice were given ad libitum access to feed and water. The mice were fasted from 18 hours before the test, except for allowing free access to water. After measuring the mice′ body weights and blood sugar levels, they were divided into test groups so as to have similar blood sugar levels. The mice were orally administered with a mixture of test compound and the diluent (0.5% solution of MC1500 (Sigma)). At 30 minutes after the administration, the mice were also orally administered with 20% glucose solution in an amount of 0.1 ml per 10 g of body weight. The blood samples were taken from the tail vain at 0 (right before the administration of the glucose solution), 15, 30, 60, 90, and 120 minutes after the administration of the glucose solution; and the blood sugar levels thereof were measured with a blood glucose test meter (GlucoDr. AGM-3000, All Medicus Co. Ltd.). The graph for blood sugar level on time for each test compound was plotted from the respective blood sugar values; and then area under the curve (AUCglucose) was determined. The inhibition rate of blood sugar (%) was calculated from the following formula. Inhibition rate of blood sugar (%)=[(AUCglucose of the negative control group−AUCglucose of the test group)/AUCglucose of the negative control group]×100

GPR119 [1] = biological target: T1, GPR119 (Homo sapiens, UniProt Q8TDV5); experiment: cAMP Accumulation Assay (GPR119 CRE-bla CHO-K1 cells, LiveBLAzer-FRET B/G); format: cell-based; details: for EC50: 5 hours incubation; for Emax (Fold): maximum activity, response ratio versus non-treated control group
T1 construct: host or cells: CHO-K1 (GPR119 CRE-bla, doxycycline-induced)
T1 sequence (Q8TDV5 1-335): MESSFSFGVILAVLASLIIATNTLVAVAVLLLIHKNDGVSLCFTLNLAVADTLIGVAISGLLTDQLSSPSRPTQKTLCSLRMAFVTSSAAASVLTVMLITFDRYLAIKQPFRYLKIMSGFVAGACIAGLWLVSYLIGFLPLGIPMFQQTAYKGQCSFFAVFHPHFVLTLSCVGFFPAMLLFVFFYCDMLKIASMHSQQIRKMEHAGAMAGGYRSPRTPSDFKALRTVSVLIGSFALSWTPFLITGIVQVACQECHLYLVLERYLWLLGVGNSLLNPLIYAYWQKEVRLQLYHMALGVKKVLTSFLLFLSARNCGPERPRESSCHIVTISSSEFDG

GPR119 [2] = biological target: T1, GPR119; experiment: as above; format: cell-based; details: (Emax of the test compound/Emax of MBX-2982)x100, 5 hours incubation

Row | SMILES | EC50 (GPR119 [1]) [nM] | Emax (Fold) (GPR119 [1]) | Emax (% RR) (GPR119 [2]) | Inhibition rate of blood sugar (%) (male C57BL/6 mice)
1 | CCc1cnc(N2CCN(c3ncc(-c4ccc(-n5cnn(C(C)C)c5=O)c(F)c4)cc3C#N)CC2)nc1 [Example 44, 2-(4-(5-ethylpyrimidin-2-yl)piperazin-1-yl)-5-(3-fluoro-4-(1-isopropyl-5-oxo-1H-1,2,4-triazol-4(5H)-yl)phenyl)nicotinonitrile sulfonate] |  |  |  | 27.0
2 | CCc1cnc(N2CCN(c3ncc(-c4ccc(-n5cnn(CCN)c5=O)c(F)c4)cc3C#N)[C@@H](C)C2)nc1.Cl [Example 17, (S)-5-(4-(1-(2-aminoethyl)-5-oxo-1H-1,2,4-triazol-4(5H)-yl)-3-fluorophenyl)-2-(4-(5-ethylpyrimidin-2-yl)-2-methylpiperazin-1-yl)nicotinonitrile hydrochloride] | 8.2 | 3.2 | 115.1 | 18.2
3 | CCc1cnc(N2CCN(c3ncc(-c4ccc(-n5cnn(CCN6CCCC6)c5=O)c(F)c4)cc3C#N)[C@@H](C)C2)nc1 [Example 14] | 14.8 | 3.3 | 125.1 | 18.6
4 | CCc1cnc(N2CCN(c3ncc(-c4ccc(-n5cnn(CCN(CC)CC)c5=O)c(F)c4)cc3C#N)[C@@H](C)C2)nc1 [Example 10, (S)-5-(4-(1-(2-(diethylamino)ethyl)-5-oxo-1H-1,2,4-triazol-4(5H)-yl)-3-fluorophenyl)-2-(4-(5-ethylpyrimidin-2-yl)-2-methylpiperazin-1-yl)nicotinonitrile] | 8 | 2.6 | 104.5 | 23.8
5 | CCCn1ncn(-c2ccc(-c3ccc(N4CCN(C(=O)OC(C)(C)C)CC4C(F)(F)F)nc3)cc2F)c1=O (stereo not drawn) [Example 50, tert-butyl 4-(5-(3-fluoro-4-(5-oxo-1-propyl-1H-1,2,4-triazol-4(5H)-yl)phenyl)pyridin-2-yl)-3-(trifluoromethyl)piperazin-1-carboxylate] |  |  |  | 15.6
6 | C[C@H]1CN(C(=O)OC(C)(C)C)CCN1c1ncc(-c2ccc(-n3cnn(C)c3=O)c(F)c2)cn1 [Example 1, (S)-tert-butyl 4-(5-(3-fluoro-4-(1-methyl-5-oxo-1H-1,2,4-triazol-4(5H)-yl)phenyl)pyrimidin-2-yl)-3-methylpiperazin-1-carboxylate] | 59 | 2.9 | 123.9 | 22.3
7 | CCN(CC)CCn1ncn(-c2ccc(-c3cnc(N4CCC(N(C)C(=O)OC(C)(C)C)CC4)c(C#N)c3)cc2F)c1=O [Example 61, tert-butyl 1-(3-cyano-5-(4-(1-(2-(diethylamino)ethyl)-5-oxo-1H-1,2,4-triazol-4(5H)-yl)-3-fluorophenyl)pyridin-2-yl)piperidin-4-yl(methyl)carbamate] |  |  |  | 18.0
8 | COCCn1ncn(-c2ccc(-c3cnc(N4CCC(c5noc(C(C)C)n5)CC4)c(C#N)c3)cc2)c1=O [Example 69, 2-(4-(5-isopropyl-1,2,4-oxadiazol-3-yl)piperidin-1-yl)-5-(4-(1-(2-methoxyethyl)-5-oxo-1H-1,2,4-triazol-4(5H)-yl)phenyl)nicotinonitrile] | 16 | 3.7 | 126.7 | 25.8
9 | CCN(CC)CCn1ncn(-c2ccc(-c3cnc(N4CCC(c5nc(C(C)C)no5)CC4)c(C#N)c3)cc2F)c1=O [Example 63, 5-(4-(1-(2-(diethylamino)ethyl)-5-oxo-1H-1,2,4-triazol-4(5H)-yl)-3-fluorophenyl)-2-(4-(3-isopropyl-1,2,4-oxadiazol-5-yl)piperidin-1-yl)nicotinonitrile] |  |  |  | 27.7
10 | CC(C)c1nc(C2CCN(c3ncc(-c4ccc(-n5cnn(CC(N)=O)c5=O)cc4)cc3C#N)CC2)no1 [Example 72, 2-(4-(4-(5-cyano-6-(4-(5-isopropyl-1,2,4-oxadiazol-3-yl)piperidin-1-yl)pyridin-3-yl)phenyl)-5-oxo-4,5-dihydro-1H-1,2,4-triazol-1-yl)acetamide] |  |  |  | 16.5

Now from value to compound, other results behind:

Row | EC50 (GPR119 [1]) [nM] | Emax (Fold) (GPR119 [1]) | Emax (% RR) (GPR119 [2]) | SMILES | Inhibition rate of blood sugar (%) (male C57BL/6 mice)
11 | 5 | 3.1 | 113.4 | CCc1cnc(N2CCN(c3ncc(-c4ccc(-n5cnn([C@@H]6CCOC6)c5=O)cc4)cc3C#N)CC2)nc1 [Example 41, (R)-2-(4-(5-ethylpyrimidin-2-yl)piperazin-1-yl)-5-(4-(5-oxo-1-(tetrahydrofuran-3-yl)-1H-1,2,4-triazol-4(5H)-yl)phenyl)nicotinonitrile] | 18.8
12 | 8.4 | 3.2 | 113.8 | CCc1cnc(N2CCN(c3ncc(-c4ccc(-n5cnn([C@@H]6CCNC6)c5=O)c(F)c4)cc3C#N)CC2)nc1 [Example 34, (R)-2-(4-(5-ethylpyrimidin-2-yl)piperazin-1-yl)-5-(3-fluoro-4-(5-oxo-1-(pyrrolidin-3-yl)-1H-1,2,4-triazol-4(5H)-yl)phenyl)nicotinonitrile] | 25.1
13 | 9.8 | 3.8 | 127.3 | CC(C)c1nc(C2CCN(c3ncc(-c4ccc(-n5cnn([C@H]6CCOC6)c5=O)cc4)cc3C#N)CC2)no1 [Example 71, (S)-2-(4-(5-isopropyl-1,2,4-oxadiazol-3-yl)piperidin-1-yl)-5-(4-(5-oxo-1-(tetrahydrofuran-3-yl)-1H-1,2,4-triazol-4(5H)-yl)phenyl)nicotinonitrile] | 20.4
14 | 5 | 3.5 | 124.5 | CCc1cnc(N2CCN(c3ncc(-c4ccc(-n5cnn(CCN6CCOCC6)c5=O)c(F)c4)cc3C#N)[C@@H](C)C2)nc1 [Example 15, (S)-2-(4-(5-ethylpyrimidin-2-yl)-2-methylpiperazin-1-yl)-5-(3-fluoro-4-(1-(2-morpholinoethyl)-5-oxo-1H-1,2,4-triazol-4(5H)-yl)phenyl)nicotinonitrile] | 21.7
15 | 12 | 3.2 | 141.6 | CC(C)c1nc(N2CCN(c3ncc(-c4ccc(-n5cnn([C@H]6CCOC6)c5=O)c(F)c4)cc3C#N)CC2)no1 [Example 47, (S)-5-(3-fluoro-4-(5-oxo-1-(tetrahydrofuran-3-yl)-1H-1,2,4-triazol-4(5H)-yl)phenyl)-2-(4-(5-isopropyl-1,2,4-oxadiazol-3-yl)piperazin-1-yl)nicotinonitrile] | 32.7
16 | 4.4 | 4.0 | 125.7 | CCc1cnc(N2CCN(c3ncc(-c4ccc(-n5cnn([C@@H]6CCOC6)c5=O)c(F)c4)cc3C#N)CC2)nc1 [Example 33, (R)-2-(4-(5-ethylpyrimidin-2-yl)piperazin-1-yl)-5-(3-fluoro-4-(5-oxo-1-(tetrahydrofuran-3-yl)-1H-1,2,4-triazol-4(5H)-yl)phenyl)nicotinonitrile] | 20.9
17 | 9 | 3.1 | 112.1 | CCc1cnc(N2CCN(c3ncc(-c4ccc(-n5cnn(CCOC)c5=O)cc4)cc3C#N)CC2)nc1 [Example 40, 2-(4-(5-ethylpyrimidin-2-yl)piperazin-1-yl)-5-(4-(1-(2-methoxyethyl)-5-oxo-1H-1,2,4-triazol-4(5H)-yl)phenyl)nicotinonitrile] | 17.2
18 | 3.2 | 3.1 | 110.0 | CCc1cnc(N2CCN(c3ncc(-c4ccc(-n5cnn(CC(=O)N6CCCC6)c5=O)c(F)c4)cc3C#N)CC2)nc1 [Example 37, 2-(4-(5-ethylpyrimidin-2-yl)piperazin-1-yl)-5-(3-fluoro-4-(5-oxo-1-(2-oxo-2-(pyrrolidin-1-yl)ethyl)-1H-1,2,4-triazol-4(5H)-yl)phenyl)nicotinonitrile] | 16.5
